Test results: patent publication US11197857B2, “Combination therapy” (GlaxoSmithKline Intellectual Property Development Limited, priority 2016, dated 2021)

Legend:
PRMT5/MEP50 = PRMT5/MEP50 (Homo sapiens, UniProt O14744); assay: PRMT family radioactive assay; type: biochemical; conditions: 60 minute SAM:Enzyme:Compound A preincubation
Breast cancer cell lines = assay: 6-day growth-death assay (Cell Titer Glo); type: cell-based, human; conditions: 29 cell lines
[1] = system: ADMA, MMA, SDMA in Toledo cells; assay: arginine methylation western analysis (time course and washout); type: cell-based, human; set-up: time to return of MMA to baseline after washout / time to return of ADMA to baseline after washout / time to return of SDMA to baseline after washout: dose or concentration left out as unconfirmed
From the text: (B) Representative western blots of arginine methylation marks. Regions quantified are denoted by black bars on the right of the gel.
(B) Representative western blots of arginine methylation marks. Regions quantified for (A) are denoted by black bars on the side of the gel.
As predicted, ADMA methylation decreased while MMA increased upon compound exposure (FIG. 12). […] Given the detection of numerous substrates with varying kinetics, and variability of ADMA levels among DMSO-treated samples, both the full lane and a prominent 45 kDa band were characterized to assess ADMA. Increases in MMA were apparent by 24 hours and near maximal by 48 hours while decreases in the 45 kDa ADMA band required 72-96 hours to achieve maximal effect. Increases in SDMA were apparent after 48 hours of compound exposure and continued to increase through 120 hours, consistent with the potential switch from conversion of MMA to ADMA by Type I PRMTs to SDMA by Type II PRMTs (FIG. 12).
Cells were then washed, cultured in Compound A-free media, samples were collected daily through 120 hours, and arginine methylation levels were examined by western analysis. […] SDMA appeared to continue to increase even after 6 hours of washout. This is consistent with the continued increase observed through 120 hours without any obvious plateau (FIG. 12) coupled with the durable increase in MMA that has not yet returned to baseline after washout. Durability of each modification generally reflected the kinetics of arginine methylation changes brought about by Compound A, with MMA being the most rapid.

769-P = assay: 6-day growth-death assay (Cell Titer Glo); type: cell-based, human; conditions: ccRCC
Description: (§1) The growth of all cell lines was evaluated over time across a wide range of seeding densities to identify conditions that permitted proliferation throughout the entire 6-day assay. Cells were plated at the optimal seeding density and after overnight incubation, a 20-point 2-fold titration of compound was added and plates were incubated for 6 days. A replicate plate of cells was harvested at the time of compound addition to quantify the starting number of cells (T0). Values obtained after the 6 day treatment were expressed as a function of the T0 value and plotted against compound concentration. The T0 value was normalized to 100% and represents the number of cells at the time of compound addition. The data were fit with a 4 parameter equation to generate a concentration response curve and the growth IC50 (gIC50) was determined. The gIC50 is the midpoint of the ‘growth window’, the difference between the number of cells at the time of compound addition (To) and the number of cells after 6 days (DMSO control). The growth-death assay can be used to quantify the net population change, clearly defining cell death (cytotoxicity) as fewer cells compared to the number at the time of compound addition (To).

786-O = assay: 6-day growth-death assay (Cell Titer Glo); type: cell-based, human; conditions: ccRCC
Description: as §1

A498 = assay: 6-day growth-death assay (Cell Titer Glo); type: cell-based, human; conditions: A498, ccRCC
Description: as §1

ACHN = assay: 6-day growth-death assay (Cell Titer Glo); type: cell-based, human
Description: as §1

CAKI-1 = assay: 6-day growth-death assay (Cell Titer Glo); type: cell-based, human; conditions: CAKI-1, ccRCC
Description: as §1

CAKI-2 = assay: 6-day growth-death assay (Cell Titer Glo); type: cell-based, human; conditions: CAKI-2, ccRCC
Description: as §1

G-401 = assay: 6-day growth-death assay (Cell Titer Glo); type: cell-based, human; conditions: G-401, Wilm's
Description: as §1

G-402 = assay: 6-day growth-death assay (Cell Titer Glo); type: cell-based, human; conditions: G-402, Leiomyoblastoma
Description: as §1

HL-60 = assay: 6-day growth-death assay (Cell Titer Glo); type: cell-based, human
Description: as §1

KASUMI-1 = assay: 6-day growth-death assay (Cell Titer Glo); type: cell-based, human
Description: as §1

MOLM-13 = assay: 6-day growth-death assay (Cell Titer Glo); type: cell-based, human; conditions: MOLM-13, subtype M5
Description: as §1

MOLM-16 = assay: 6-day growth-death assay (Cell Titer Glo); type: cell-based, human; conditions: MOLM-16, subtype M0
Description: as §1

MV-4-11 = assay: 6-day growth-death assay (Cell Titer Glo); type: cell-based, human; conditions: MV-4-11, subtype M5
Description: as §1

NOMO-1 = assay: 6-day growth-death assay (Cell Titer Glo); type: cell-based, human; conditions: NOMO-1, subtype M5
Description: as §1

OCI-AML3 = assay: 6-day growth-death assay (Cell Titer Glo); type: cell-based, human
Description: as §1

SHI-1 = assay: 6-day growth-death assay (Cell Titer Glo); type: cell-based, human; conditions: SHI-1, subtype M5
Description: as §1

SK-NEP-1 = assay: 6-day growth-death assay (Cell Titer Glo); type: cell-based, human; conditions: SK-NEP-1, Wilm's
Description: as §1

SKM-1 = assay: 6-day growth-death assay (Cell Titer Glo); type: cell-based, human; conditions: SKM-1, subtype M5
Description: as §1

SW156 = assay: 6-day growth-death assay (Cell Titer Glo); type: cell-based, human; conditions: SW156, ccRCC
Description: as §1

TF-1 = assay: 6-day growth-death assay (Cell Titer Glo); type: cell-based, human; conditions: TF-1, subtype M6
Description: as §1

PRMT5/MEP50, sequence (O14744 whole entry): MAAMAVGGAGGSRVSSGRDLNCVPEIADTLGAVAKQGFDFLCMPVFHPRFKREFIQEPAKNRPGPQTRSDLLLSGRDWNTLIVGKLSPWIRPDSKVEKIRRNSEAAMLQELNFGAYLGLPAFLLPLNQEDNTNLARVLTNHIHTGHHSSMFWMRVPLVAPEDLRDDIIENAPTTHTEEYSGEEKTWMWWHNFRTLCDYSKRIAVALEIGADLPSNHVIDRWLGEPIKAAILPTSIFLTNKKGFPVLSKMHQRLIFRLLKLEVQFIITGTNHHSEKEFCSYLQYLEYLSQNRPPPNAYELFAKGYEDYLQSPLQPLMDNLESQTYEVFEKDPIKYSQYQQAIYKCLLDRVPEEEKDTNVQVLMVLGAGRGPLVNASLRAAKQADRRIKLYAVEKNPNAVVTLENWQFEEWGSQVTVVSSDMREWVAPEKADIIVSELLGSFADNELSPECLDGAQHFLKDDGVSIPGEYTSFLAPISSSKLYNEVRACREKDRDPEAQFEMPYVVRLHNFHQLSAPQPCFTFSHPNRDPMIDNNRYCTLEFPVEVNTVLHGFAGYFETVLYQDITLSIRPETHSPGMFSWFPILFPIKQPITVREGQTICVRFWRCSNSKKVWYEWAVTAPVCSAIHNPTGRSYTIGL
PRMT5/MEP50, sequence (Q9BQA1 whole entry partner): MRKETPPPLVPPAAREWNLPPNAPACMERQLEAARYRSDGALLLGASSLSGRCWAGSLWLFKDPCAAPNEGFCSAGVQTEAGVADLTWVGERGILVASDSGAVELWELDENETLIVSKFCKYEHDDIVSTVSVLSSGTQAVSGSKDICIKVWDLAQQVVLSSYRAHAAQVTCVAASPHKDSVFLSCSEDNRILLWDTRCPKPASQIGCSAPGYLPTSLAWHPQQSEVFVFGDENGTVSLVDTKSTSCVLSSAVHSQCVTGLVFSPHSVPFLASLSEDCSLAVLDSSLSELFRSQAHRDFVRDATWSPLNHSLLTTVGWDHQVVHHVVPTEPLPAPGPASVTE

With `CCOCC1(COCC)CCC(c2n[nH]cc2CN(C)CCNC)CC1` [Compound A] the inhibition of activity (PRMT5/MEP50) was “failed to inhibit”, the “% Cytotoxic (cell lines with negative Ymin-T0)” value (Breast cancer cell lines) was 10% and the “% gIC100 < 2 μM (share of cell lines)” value (Breast cancer cell lines) was 0%. The “Median gIC100” value (Breast cancer cell lines) was 29.36 µM, the “time after which increases in SDMA were apparent” value ([1]; 0.4 μM) was 48 h and the “time by which increases in MMA were apparent” value ([1]; 0.4 μM) was no more than 24 h. The “time by which increases in MMA were near maximal” value ([1]; 0.4 μM) was no more than 48 h, the “time required for maximal decrease of 45 kDa ADMA band” value ([1]; 0.4 μM) was 72 to 96 h and the ADMA methylation change ([1]; 0.4 μM, up to 120 hours) was “decreased”. For the same compound, the MMA change ([1]; 0.4 μM, up to 120 hours) was “increased”, the SDMA level change ([1]; 0.4 μM, up to 120 hours) was “increase” and the “time to return of ADMA to baseline after washout” value ([1]; then washout) was no more than 24 h. The “time to return of MMA to baseline after washout” value ([1]; then washout) was no more than 24 h, the “time to return of SDMA to baseline after washout” value ([1]; then washout) was no more than 96 h and the Ymin-T0 (769-P) was 119.0. For the same compound, the Ymin-T0 (786-O) was 643.7, the Ymin-T0 (A498) was 313.4 and the IC50 (ACHN; Homo sapiens, read-out: gIC50) was 100 ± 50 nM. It also gave a Ymin-T0 (ACHN; ccRCC) of 96.5, a Ymin-T0 (CAKI-1) of 178.7 and a Ymin-T0 (CAKI-2) of 169.6. For the same compound, the Ymin-T0 (G-401) was 353.7, the Ymin-T0 (G-402) was 92.6 and the Ymin-T0 (HL-60; HL-60, subtype M3) was −33.4. The gIC100 (HL-60; HL-60, subtype M3) was 6.38 ± 12.83 µM, the IC50 (HL-60; Homo sapiens, HL-60, read-out: gIC50) was 20 ± 10 nM and the IC50 (KASUMI-1; Homo sapiens, Kasumi 1, read-out: gIC50) was 360 ± 250 nM. For the same compound, the Ymin-T0 (KASUMI-1; KASUMI-1, subtype M2) was −17.7, the gIC100 (KASUMI-1; KASUMI-1, subtype M2) was 18.88 ± 10.55 µM and the Ymin-T0 (MOLM-13) was −100.0. For the same compound, the gIC100 (MOLM-13) was 8.64 ± 0.39 µM, the Ymin-T0 (MOLM-16) was −68.6 and the gIC100 (MOLM-16) was 9.69 ± 10.58 µM. The Ymin-T0 (MV-4-11) was 565.6, the gIC100 (MV-4-11) was 14.55 ± 4.27 µM and the Ymin-T0 (NOMO-1) was 259.1. The gIC100 (NOMO-1) was 29.33 ± 0.00 µM, the IC50 (OCI-AML3; Homo sapiens, OCI-AML-3, read-out: gIC50) was 870 ± 140 nM and the Ymin-T0 (OCI-AML3; OCI-AML3, subtype M4) was 523.2. The gIC100 (OCI-AML3; OCI-AML3, subtype M4) was 29.33 ± 0.00 µM, the Ymin-T0 (SHI-1) was 292.0 and the gIC100 (SHI-1) was 29.33 ± 0.02 µM. It also gave a Ymin-T0 (SK-NEP-1) of 25.3, a Ymin-T0 (SKM-1) of −19.1 and a gIC100 (SKM-1) of 11.61 ± 5.52 µM. The Ymin-T0 (SW156) was 346.7, the Ymin-T0 (TF-1) was 788.1 and the gIC100 (TF-1) was 29.33 ± 0.00 µM.
